According to patent US20250313535A1, “ALPHA 4 BETA 7 INTEGRIN MODULATORS AND USES THEREOF” (DICE MOLECULES SV, INC., priority 2022, published 2025):
pIC50: −log10 of the molar value.

Legend:
[1] = biological target: α4β7 integrin (Homo sapiens (Human), UniProt P13612+P26010); test: Integrin Adhesion Assay: Protocol 4 (MAdCAM-coated plate, RPMI-8866 cells with stable LOF mutation of the ITGB1 gene); type: cell-based; conditions: RPMI-8866 cells with stable LOF mutation of the ITGB1 gene; read-out: Mean IC50 α4β7 KO^a
Experimental: (§1) Integrin Adhesion Assay Using Genetically Modified Cells Generating Stable Cell Lines with ITGB1 or ITGB7 Knockout (Protocol 4 and Protocol 5)
(§2) To obtain subclones of the RPMI-8866 cell line (Sigma-Aldrich, St. Louis, MO) that were individually deficient in either integrin β1 or integrin β 7, CRISPR/Cas9 technology was employed (PMID: 30108345). Specifically, a Neon™ Transfection System System 10 μL Kit and the Neon™ Transfection device (both from ThermoFisher Scientific) were used.
(§3) The protocol was performed following the manufacturer instructions, described in https://www.thermofisher.com/document-connect/document-connect.html?url=https % 3A%2F%2F assets.thermofisher.com%2FTFS-Assets%2FLSG%2Fmanuals%2FMAN0017066_TrueCut Cas9_Protein_v2_UG.pdf, which is incorporated by reference herein in its entirety.
(§4) RPMI-8866 cells were transferred to a flask the day before transfection, at a confluence of 5×10^5 cells/mL. The cells were washed with PBS and resuspended in buffer R (Neon™ Transfection System, Invitrogen) to 2×10^5 cells/10 uL for each reaction. The TrueCut™ HiFi Cas9 Protein (1250 ng per reaction) was mixed with TrueGuide™ sgRNA (7.5 pmoles each/pool of 3 sequences, table 1) (ThermoFisher Scientific). This mix was combined with the RPMI-8866 cells and electroporated on the Neon system at 1700V/20 ms/1 pulse. Transfected cells were allowed to recover in 500 μL pre-warmed cRMPI media (RPMI-1640 media with 10% FBS, 100 U/ml Penicillin-Streptomycin) at 37° C., 5% CO2 for 24 hours. At that time, an extra 500 μL of pre-warmed cRMPI media was added, and cells were incubated for another 24 hours.
(§5) For flow cytometry analysis, 100 μL of the transfected cells were collected and stained with anti-itga4 (Clone: 9F10, PE, BD Pharmingen™), anti-itgb 1 (Clone: (TS2/16), Super Bright 436, eBioscience), anti-itgb7 (Clone: FIB504, Brilliant Violet 650, BD Pharmingen™) and viability dye (LIVE/DEAD™ Fixable Green Dead Cell Stain, Invitrogen™). An Attune NxT Flow Cytometer was used to analyze the CRISPR-transfected cells. The flow cytometry results were analyzed using FlowJo™ v10.8.1 Software (BD Life Sciences). Fluorescence minus one (FMO) controls were used to select appropriate gates for data analysis.
(§6) To generate an individual clones of cells deficient in either ITGB7 or ITGB1 by limiting dilution assay, the transfected cells were resuspended at 5 cells/mL and seeded in 384 well plates. Outgrowth of clones was monitored using a microscope, and 24 clones were transferred for expansion. Expression of either integrin was verified by flow cytometry in each of the clones. One clone of each integrin b7 or the integrin b1 knockout was chosen, expanded and aliquots were frozen in vapor phase liquid nitrogen.
Integrin Adhesion Assay: Protocol 4
(§7) MAdCAM (R&D Systems, 0.1 ug) was diluted in 50 μL PBS, added to each well of an opaque ELISA plate (Thermo), and incubated overnight at 4° C. Coated plates were washed once with PBS and then blocked with 200 μL of assay buffer (10 mM HEPES, 150 mM NaCl, 1 mM MnCl2, 0.1 mM CaCl2), 1% BSA) for 1 hour at 37° C. and 5% CO2. After incubation, buffer was aspirated from the plates and 50 μL of fresh assay buffer was added. Compounds were added using a compounds dispenser (Tecan), and DMSO concentration was normalized to 1% across each plate. 50 μL of RPMI-8866 cells with a stable loss of function (LOF) mutation of the ITGB1 gene (2×10^6 per mL) were added to each well and the plates were incubated for 1 hour at 37° C. at a CO2 concentration of 5%. After incubation, plates were allowed to cool to RT for 10 minutes before being washed four times in assay buffer by an automated plate washer (BioTek). After washing, 100 μL of a 1:1 mixture of assay buffer and CellTiter GLO 2.0 reagent (Promega) were added to each well. Plates were mixed for 2 minutes at 1000 rpm and then allowed to incubate an additional 10 minutes before reading out luminescence on a Tecan Spark plate reader. […]

[2] = biological target: α4β1 integrin (Homo sapiens (Human), UniProt P05556+P13612); test: Integrin Adhesion Assay: Protocol 5 (VCAM-coated plate, RPMI-8866 cells with stable LOF mutation of the ITGB7 gene); type: cell-based; conditions: RPMI-8866 cells with stable LOF mutation of the ITGB7 gene; read-out: Mean IC50 α4β1 KO^b
Experimental: as §1, §2, §3, §4, §5, §6
Integrin Adhesion Assay: Protocol 5
as §7, with “VCAM” for “MAdCAM”, “by” for “using a”, “(Tecan)” for “(Tecan),”, “LOF” for “loss of function (LOF)”, “ITGB7” for “ITGB1”, “and 5% CO2.” for “at a CO2 concentration of 5%.”

α4β7 integrin, sequence (P13612 34-1032): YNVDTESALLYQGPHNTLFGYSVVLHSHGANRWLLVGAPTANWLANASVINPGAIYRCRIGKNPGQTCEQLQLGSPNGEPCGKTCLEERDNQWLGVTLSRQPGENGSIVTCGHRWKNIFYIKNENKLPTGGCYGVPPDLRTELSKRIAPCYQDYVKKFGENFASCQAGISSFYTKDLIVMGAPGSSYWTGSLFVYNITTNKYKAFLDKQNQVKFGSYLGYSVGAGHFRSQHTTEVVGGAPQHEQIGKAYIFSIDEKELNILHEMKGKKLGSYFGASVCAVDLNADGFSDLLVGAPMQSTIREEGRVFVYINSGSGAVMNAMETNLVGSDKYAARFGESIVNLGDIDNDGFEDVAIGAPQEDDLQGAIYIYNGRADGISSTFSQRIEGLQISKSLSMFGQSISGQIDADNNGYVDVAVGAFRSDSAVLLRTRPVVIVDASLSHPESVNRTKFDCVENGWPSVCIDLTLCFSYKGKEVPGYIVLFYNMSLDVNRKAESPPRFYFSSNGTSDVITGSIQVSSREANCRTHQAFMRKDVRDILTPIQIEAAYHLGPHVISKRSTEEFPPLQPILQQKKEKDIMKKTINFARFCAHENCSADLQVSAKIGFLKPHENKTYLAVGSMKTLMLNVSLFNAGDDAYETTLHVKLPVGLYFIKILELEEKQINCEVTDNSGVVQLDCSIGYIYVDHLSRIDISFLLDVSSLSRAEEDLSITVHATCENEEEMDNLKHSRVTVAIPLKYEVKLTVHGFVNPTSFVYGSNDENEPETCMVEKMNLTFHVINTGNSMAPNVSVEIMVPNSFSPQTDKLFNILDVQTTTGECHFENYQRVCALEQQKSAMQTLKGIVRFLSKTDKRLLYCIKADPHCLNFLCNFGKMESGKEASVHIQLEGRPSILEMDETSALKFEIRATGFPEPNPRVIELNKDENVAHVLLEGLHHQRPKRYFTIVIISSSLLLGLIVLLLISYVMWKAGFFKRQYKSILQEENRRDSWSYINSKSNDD
α4β7 integrin, sequence (P26010 20-798): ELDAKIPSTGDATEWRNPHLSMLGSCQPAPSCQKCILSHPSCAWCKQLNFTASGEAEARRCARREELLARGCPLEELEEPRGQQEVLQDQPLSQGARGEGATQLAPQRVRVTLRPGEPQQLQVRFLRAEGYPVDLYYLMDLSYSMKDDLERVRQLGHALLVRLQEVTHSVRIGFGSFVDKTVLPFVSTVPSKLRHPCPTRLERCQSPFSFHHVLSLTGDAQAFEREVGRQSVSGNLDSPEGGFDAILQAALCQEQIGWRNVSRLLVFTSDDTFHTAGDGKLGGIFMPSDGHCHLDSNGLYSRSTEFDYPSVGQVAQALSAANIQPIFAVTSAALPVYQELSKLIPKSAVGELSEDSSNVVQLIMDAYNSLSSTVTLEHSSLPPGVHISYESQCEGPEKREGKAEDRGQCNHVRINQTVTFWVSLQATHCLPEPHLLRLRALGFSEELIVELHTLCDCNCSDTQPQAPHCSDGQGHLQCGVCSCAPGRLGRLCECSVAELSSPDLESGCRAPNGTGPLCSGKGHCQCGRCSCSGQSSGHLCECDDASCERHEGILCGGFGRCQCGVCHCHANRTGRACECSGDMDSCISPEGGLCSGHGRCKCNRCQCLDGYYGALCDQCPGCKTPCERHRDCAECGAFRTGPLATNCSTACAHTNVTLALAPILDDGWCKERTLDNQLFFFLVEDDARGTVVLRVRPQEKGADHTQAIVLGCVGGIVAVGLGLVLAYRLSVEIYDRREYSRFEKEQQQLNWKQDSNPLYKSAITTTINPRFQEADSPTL
α4β1 integrin, sequence (P13612 34-1032): as the sequence (P13612 34-1032) above
α4β1 integrin, sequence (P05556 21-798): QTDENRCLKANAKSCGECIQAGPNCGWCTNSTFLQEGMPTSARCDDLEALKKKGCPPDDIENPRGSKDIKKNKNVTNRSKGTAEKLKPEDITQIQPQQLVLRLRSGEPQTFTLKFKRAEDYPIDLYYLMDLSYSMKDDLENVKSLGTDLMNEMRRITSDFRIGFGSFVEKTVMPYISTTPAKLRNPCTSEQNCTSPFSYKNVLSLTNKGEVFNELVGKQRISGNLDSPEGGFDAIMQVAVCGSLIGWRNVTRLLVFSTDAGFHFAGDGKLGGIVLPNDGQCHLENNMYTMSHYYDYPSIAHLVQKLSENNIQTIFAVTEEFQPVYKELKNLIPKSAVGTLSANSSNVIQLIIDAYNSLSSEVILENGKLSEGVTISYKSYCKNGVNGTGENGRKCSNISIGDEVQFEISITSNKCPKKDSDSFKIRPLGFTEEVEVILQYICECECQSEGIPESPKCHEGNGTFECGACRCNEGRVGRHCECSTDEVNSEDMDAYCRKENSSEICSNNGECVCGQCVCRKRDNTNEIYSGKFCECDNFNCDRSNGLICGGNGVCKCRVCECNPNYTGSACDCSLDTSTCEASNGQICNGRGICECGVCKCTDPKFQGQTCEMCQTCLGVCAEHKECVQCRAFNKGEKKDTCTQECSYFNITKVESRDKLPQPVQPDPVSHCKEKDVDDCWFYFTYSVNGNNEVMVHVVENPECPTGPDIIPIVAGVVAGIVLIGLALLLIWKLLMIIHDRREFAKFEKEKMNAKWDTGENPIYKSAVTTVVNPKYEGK

pIC50 [1] | pIC50 [2] | Structure (SMILES)
> 8.00 | 6.00 to 7.00 | Cn1c(=O)c(-c2cccc3c(C[C@H](NC(=O)C4(C(F)(F)F)CCN([C@H]5CCOC5)CC4)C(=O)O)cccc23)c(C(F)(F)F)c2ccccc21 [Compound 457]
> 8.00 | 6.00 to 7.00 | COc1ccc(CCN(C)C)c(OC)c1-c1cccc2c(C[C@H](NC(=O)C3(C(F)(F)F)CCN(CC(F)(F)F)CC3)C(=O)O)cccc12 [Compound 468]
7.00 to 8.00 | 6.00 to 7.00 | CN(C)CCc1cc(-c2cccc3c(C[C@H](NC(=O)C4(C(F)(F)F)CCN(CC(F)(F)F)CC4)C(=O)O)cccc23)c2cnccc2c1 [Compound 469]
> 8.00 | 6.00 to 7.00 | COC(=O)[C@H](Cc1cccc2c(-c3nccc4cc(CCN(C)C)ccc34)cccc12)NC(=O)OC(C)(C)C [Compound 471]
> 8.00 | < 6.00 | COc1ccc2cccnc2c1-c1cccc2c(C[C@H](NC(=O)C3(C(F)(F)F)CCN(CC(F)(F)F)CC3)C(=O)O)cccc12 [Compound 472]
> 8.00 | 6.00 to 7.00 | COc1cc2c(c(OC)c1-c1cccc3c(C[C@H](NC(=O)c4c(C)cccc4F)C(=O)O)cccc13)CN(C)CC2 [Compound 473]
> 8.00 | 6.00 to 7.00 | COc1cc2c(c(OC)c1-c1cccc3c(C[C@H](NC(=O)C4(C(F)(F)F)CCN(CC(F)(F)F)CC4)C(=O)O)cccc13)CN(C)CC2 [Compound 474]
> 8.00 | 6.00 to 7.00 | COc1cc2c(c(OC)c1-c1cccc3c(C[C@H](NC(=O)c4c(C)cccc4F)C(=O)O)cccc13)CN(CC(F)(F)F)CC2 [Compound 475]
> 8.00 | 6.00 to 7.00 | CN(C)Cc1ccc2c(C(F)(F)F)c(-c3cccc4c(C[C@H](NC(=O)C5(C(F)(F)F)CCN(CC(F)(F)F)CC5)C(=O)O)cccc34)c(=O)n(C)c2c1 [Compound 476]
> 8.00 | 6.00 to 7.00 | COc1cncc(OC)c1-c1cccc2c(C[C@H](NC(=O)c3c(C)cccc3F)C(=O)O)cccc12 [Compound 477]
> 8.00 | < 6.00 | COc1cc(CN(C)C)cc(OC)c1-c1cccc2c(C[C@H](NC(=O)C3(C(F)(F)F)CCN(CC(F)(F)F)CC3)C(=O)O)cccc12 [Compound 478]
> 8.00 | 6.00 to 7.00 | COc1ccc(CN(C)C)c(OC)c1-c1cccc2c(C[C@H](NC(=O)c3c(F)cccc3C(F)(F)F)C(=O)O)cccc12 [Compound 479]
> 8.00 | 6.00 to 7.00 | O=C(O)[C@H](Cc1cccc2c(-c3nccc4ccc(CCCN5CCCCC5)cc34)cccc12)NC(=O)C1(C(F)(F)F)CCN([C@H]2COCC2(F)F)CC1 [Compound 482]
> 8.00 | < 6.00 | O=C(O)[C@H](Cc1cccc2c(-c3nccc4ccc(CCCN5CCCCC5)cc34)cccc12)NC(=O)C1(C(F)(F)F)CCN([C@@H]2COCC2(F)F)CC1 [Compound 483]
6.00 to 7.00 | < 6.00 | CC[C@@H](N1CCC(C(=O)N[C@@H](Cc2cccc3c(-c4c(C(F)(F)F)c5ccccc5n(C)c4=O)cccc23)C(=O)O)(C(F)(F)F)CC1)C(F)(F)F [Compound 484]
< 6.00 | < 6.00 | Cn1c(=O)c(-c2cccc3c(C[C@H](NC(=O)C4(C(F)(F)F)CCN([C@H](C5CC5)C(F)(F)F)CC4)C(=O)O)cccc23)c(C(F)(F)F)c2ccccc21 [Compound 485]
< 6.00 | < 6.00 | Cn1c(=O)c(-c2cccc3c(C[C@H](NC(=O)C4(C(F)(F)F)CCN(C5(C(F)(F)F)CC5)CC4)C(=O)O)cccc23)c(C(F)(F)F)c2ccccc21 [Compound 486]
7.00 to 8.00 | < 6.00 | Cn1c(=O)c(-c2cccc3c(C[C@H](NC(=O)c4c(F)cccc4CN4CCC(C)(C)C4)C(=O)O)cccc23)c(C(F)(F)F)c2ccccc21 [Compound 487]
6.00 to 7.00 | < 6.00 | Cn1c(=O)c(-c2cccc3c(C[C@H](NC(=O)C4(C(F)(F)F)CCN(C(C)(C)C(F)(F)F)CC4)C(=O)O)cccc23)c(C(F)(F)F)c2ccccc21 [Compound 489]
< 6.00 | < 6.00 | Cn1c(=O)c(-c2cccc3c(C[C@H](NC(=O)C4(C(F)(F)F)CCN(C(C(F)(F)F)C(F)(F)F)CC4)C(=O)O)cccc23)c(C(F)(F)F)c2ccccc21 [Compound 490]
6.00 to 7.00 | < 6.00 | Cn1c(=O)c(-c2cccc3c(C[C@H](NC(=O)C4(C(F)(F)F)CCN(C5(C(F)(F)F)COC5)CC4)C(=O)O)cccc23)c(C(F)(F)F)c2ccccc21 [Compound 491]
7.00 to 8.00 | < 6.00 | Cn1c(=O)c(-c2cccc3c(C[C@H](NC(=O)C4(C(F)(F)F)CCNCC4)C(=O)O)cccc23)c(C(F)(F)F)c2ccccc21 [Compound 492]
7.00 to 8.00 | 6.00 to 7.00 | Cn1c(=O)c(-c2cccc3c(C[C@H](NC(=O)C4(C(F)(F)F)CCN(C5CC(F)(F)C5)CC4)C(=O)O)cccc23)c(C(F)(F)F)c2ccccc21 [Compound 493]
7.00 to 8.00 | 6.00 to 7.00 | Cn1c(=O)c(-c2cccc3c(C[C@H](NC(=O)C4(C(F)(F)F)CCN([C@@H]5CCC(F)(F)C5)CC4)C(=O)O)cccc23)c(C(F)(F)F)c2ccccc21 [Compound 494]
7.00 to 8.00 | < 6.00 | CCCS(=O)(=O)Nc1ccc(F)c(C(=O)N[C@@H](Cc2cccc3c(-c4c(C(F)(F)F)c5ccccc5n(C)c4=O)cccc23)C(=O)O)c1F [Compound 496]
> 8.00 | < 6.00 | O=C(O)[C@H](Cc1cccc2c(-c3nccc4ccccc34)cccc12)NC(=O)C1(C(F)(F)F)CCN(C2COC2)CC1 [Compound 497]
> 8.00 | 6.00 to 7.00 | CCOCc1cc(OC)c(-c2cccc3c(C[C@H](NC(=O)C4(C(F)(F)F)CCN(C5COC5)CC4)C(=O)O)cccc23)c(OC)c1 [Compound 498]
> 8.00 | 6.00 to 7.00 | Cn1c(C(F)(F)F)cc(C(F)(F)F)c(-c2cccc3c(C[C@H](NC(=O)C4(C(F)(F)F)CCN(C5COC5)CC4)C(=O)O)cccc23)c1=O [Compound 499]
< 6.00 | < 6.00 | O=C(N[C@@H](Cc1cccc2c(-c3cccc4cccnc34)cccc12)C(=O)O)c1c(F)cccc1F [Compound 500]

Structure (SMILES) | pIC50 [1] | pIC50 [2]
Cn1c(=O)c(-c2cccc3c(C[C@H](NC(=O)C4(C)CC5CCC(C4)N5CC(F)(F)F)C(=O)O)cccc23)c(C(F)(F)F)c2ccccc21 (stereo partly drawn) [Compound 481] | 7.00 to 8.00 | 6.00 to 7.00
